Reference: paper PMC2151269, “Broad phase II and pharmacokinetic study of methoxy-morpholino doxorubicin (FCE 23762-MMRDX) in non-small-cell lung cancer, renal cancer and other solid tumour patients” (British Journal of Cancer, 1998)

Tests used:
[1] = Leucocyte (cellular) drug levels 2 and 24 h after injection; format: in vivo, human; details: leucocytes
Source text: British Jourmal of Cancer (1998) 77(1), 139-146 ? 1998 Cancer Research Campaign Broad phase 11 and pharmacokinetic study of methoxy-morpholino doxorubicin (FCE 23762-MMRDX) in non-small-cell lung cancer, renal cancer and other solid tumour patients M Bakker', JP Droz2, AR Hanauske3, J Verweij4, AT van Oosterom5, HJM Groen', MA Pacciarini6, L Domenigoni6, F van Weissenbruch', E Pianezzola6 and EGE de Vries' 'University Hospital Groningen, The Netherlands; 2Centre L6on Berard, Lyon, France; 3Med. […] Patients received a maximum of six cycles. […] Limitations of the clinical value of anthracyclines are their toxicity profile, especially irreversible, dose-related cardiotoxicity, and intrinsic or acquired tumour resis- tance. Various mechanisms play a role in tumour cell resistance to anthracyclines, including overexpression of drug efflux pumps such as P-glycoprotein, decreased levels of the target enzyme topoisomerase II, and an increase in cellular detoxifying capacity (Kaye and Merry, 1985; Deffie et al, 1989; De Jong et al, 1990; Ford and Hait, 1990; Meijer et al, 1990; Zaman et al, 1994). The morpholinyl anthracyclines have been developed in the course of research aimed at identifying new anthracyclines with at least partially novel modes of action in addition to activity against resis- tant tumours (Acton et al, 1984). […] Box 30.001, 9700 RB Groningen, The Netherlands (Figure 1).

[2] = design: method as in Tidefelt et al, 1989; details: 0-48 h after simultaneous infusion of 20 mg of epirubicin and 20 mg of doxorubicin; ref Tidefelt et al, 1989; cited from earlier work

| Molecule | Intracellular levels as % of total MMRDX cellular levels [1] [%] | Peak cellular concentrations relative to plasma concentrations [2] |
| --- | --- | --- |
| 13-dihydro-3'-deamino-3'-[2(S)-methoxy-4-morpholinyl] doxorubicin [13-dihydro metabolite] | ≤ 5 | – |
| COc1cccc2c1C(=O)c1c(O)c3c(c(O)c1C2=O)C[C@@](O)(C(=O)CO)C[C@@H]3O[C@H]1C[C@H](N)[C@@H](O)[C@H](C)O1 [epirubicin] | – | around 200 times |
